For test [1], the system named is Candida albicans. Briefly: Rate of transport of compound in Candida albicans ATCC 26278. Type of test: functional.
Test [2] deals with Candida albicans. Briefly: Intracellular cleavage exhibited in Candida albicans ATCC 26278. Type of test: functional.

`CCC[C@H](NC(=O)[C@H](N)CCSC)C(=O)N[C@@H](CNC(=O)CI)C(=O)O` showed a Transport rate with Candida albicans [1] of 0.5 µmol/min/mg.
Regarding `CCC[C@H](NC(=O)[C@@H](N)CCSC)C(=O)N[C@@H](CNC(=O)CI)C(=O)O`, the Cleavage rate with Candida albicans [2] came to 3.8 µmol/min/mg.
For the compound `CSCCC(N)C(=O)NC(CNC(=O)CI)C(=O)O` (centres undefined), the Cleavage rate in the test with Candida albicans [2] was 3.1 µmol/min/mg. In the test on Candida albicans [1], this compound registered a Transport rate of 1.9 µmol/min/mg.

(Values after ChEMBL document CHEMBL1125145, “Antimicrobial properties of N3-(iodoacetyl)-L-2,3-diaminopropanoic acid-peptide conjugates” (1990).)
